Measured values published in patent US4016258A, “Vasoactive intestinal peptide from fowl” (priority 1975, dated 1977).
Ends that are not written are not given here.

Key:
Intact anesthetized dogs = assay: Intact anesthetized dogs: infusion into one femoral artery, femoral blood flow and aortic blood pressure measured; format: in vivo, dog; settings: for hypotensive effect compared with the porcine peptide: dogs, comparison with porcine vasoactive intestinal peptide
Description: 1. Intact anesthetized dogs
The peptide was infused into one femoral artery, and the blood flow in that artery, as well as the aortic blood pressure, were continually measured. During the infusion of the peptide, blood pressure fell and blood flow increased, indicating peripheral vasodilation.

rat stomach = assay: Isolated smooth-muscle organ strips superfused in series: rat stomach; settings: rat stomach strip superfused with Krebs solution; often initial brief contraction followed by relaxation
Description: (§1) 2. Isolated smooth-muscle organs
(§2) Four strips of smooth-muscle organs: rat stomach, guinea pig trachea, rat colon, and guinea pig gallbladder, were placed in series and superfused with warm physiological solution (Krebs), bubbled with 95% O2 and 5% CO2. The organ strips were attached to special transducers which measured their contraction or relaxation.

rat colon = assay: Isolated smooth-muscle organ strips superfused in series: rat colon; settings: rat colon strip superfused with Krebs solution
Description: as §1, §2

guinea pig trachea = assay: Isolated smooth-muscle organ strips superfused in series: guinea pig trachea
Description: as §1, §2

guinea pig gallbladder = assay: Isolated smooth-muscle organ strips superfused in series: guinea pig gallbladder; settings: guinea pig gallbladder strip superfused with Krebs solution
Description: as §1, §2

With “HSDAVFTDNYSRFRKQMAVKKYLNSVLT-NH2 [chicken peptide]” the “aortic blood pressure during infusion” value (Intact anesthetized dogs; anesthetized dogs, infusion into femoral artery) was “fell”, the “blood flow in femoral artery during infusion” value (Intact anesthetized dogs; anesthetized dogs, infusion into femoral artery, indicates peripheral vasodilation) was “increased” and the “hypotensive effect compared with the porcine peptide” value (Intact anesthetized dogs) was “less marked and shorter lasting”. For the same substance, the “hypotensive effect compared with the porcine peptide” value (Intact anesthetized dogs; listed as peptide) was “relatively short duration”, the “effect on stomach strip” value (rat stomach) was “relaxation” and the “effect on colon strip” value (rat colon) was “usually contracted”. The “relaxation of trachea compared with porcine peptide” value (guinea pig trachea; doses eliciting equal relaxation of stomach, chicken vs porcine peptide) was “many times greater”, the “effect on trachea strip” value (guinea pig trachea; guinea pig trachea strip superfused with Krebs solution) was “relaxation” and the “relaxant potency on guinea pig trachea relative to other smooth muscles tested” value (guinea pig trachea; in comparison with porcine vasoactive intestinal peptide) was “relatively more potent relaxant”. For the same substance, the “effects on gallbladder strip” value (guinea pig gallbladder) was “variable”.
